Reference: patent US20080219972A1, “Prostatic Acid Phosphatase (Pap) Materials and Methods of Use Thereof in the Prophylactic and Therapeutic Treatment of Prostate Cancer” (UNIVERSITY OF MARYLAND, BALTIMORE, priority 2005, published 2008)

System: CD4 T-cells from PBMC of HLA-DRB1*1501-positive GP patients and normal male donors
Experiment: Human CD4 T-cell line responses to PAP polypeptides (IFN-γ ELISPOT, proliferation assay, IFN-γ ELISA)
Type: cell-based
Method: The PAP polypeptides identified above were tested in human cultures. CD4 T-cell lines, which were specific for polypeptide 15 or polypeptide 19, were established from PBMC of HLA-DRB1*1501-positive GP patients and normal male donors by repeated stimulations with the polypeptide 19. After two rounds of in vitro stimulation, T-cells were plated at 2×10^4 cells/well in 96-well, round-bottomed plates, and stimulated by irradiated autologous PBMC in the presence/absence of polypeptide 19 or control polypeptide 15.
No polypeptide-specific responses were detected in primary PBMC cultures by IFN-γ ELISPOT, proliferation assay, or IFN-γ ELISA. When CD4 T-cells were stimulated with polypeptide […], cells from three of five GP patients and three of four normal male donors responded to the specific peptide in secondary cultures.
The HLA restriction of the cell line was confirmed using an immortalized B-cell line derived from a patient with type II Bare Lymphocyte Syndrome (BLC cells) and engineered to express HLA-DRB1*1501.
A CD4 T-cell line, which was developed from patient Pr131 by repeated stimulation with polypeptide 19, recognized human and mouse homolog polypeptides.

For “ESEEFLKRLHPYKSFLD TLS (ESEEFLKRLHPYKSFLDTLS; listed as Mus musculus) [mouse homolog, mouse polypeptide corresponding to human polypeptide 19, six amino acid substitutions]”, the “avidity relative to human polypeptide 19” value (inferred from concentration range of response) was “higher avidity”, the “recognition by Pr131 CD4 T-cell line raised with polypeptide 19” value (line developed by repeated stimulation with polypeptide 19) was “recognized” and the “response of Pr131 CD4 T-cell line stimulated with irradiated autologous PBMC” value (seen in a broader range of concentration) was “strong response”.
